Experimental data published in ChEMBL document CHEMBL1201862, “PubChem BioAssay data set” (2004).
Active and inactive are the calls of the source.

Legend:
Aminopeptidase N = target: T1, Aminopeptidase N (Plasmodium falciparum FcB1/Columbia, UniProt O96935); assay: malaria alanyl aminopeptidase activity blockers – biochemical, fluorogenic H-Leu-NHMec substrate, 1536-well (AID 1445); parameters: species or system Plasmodium falciparum 3D7, 3D7
T1 sequence (O96935 whole entry): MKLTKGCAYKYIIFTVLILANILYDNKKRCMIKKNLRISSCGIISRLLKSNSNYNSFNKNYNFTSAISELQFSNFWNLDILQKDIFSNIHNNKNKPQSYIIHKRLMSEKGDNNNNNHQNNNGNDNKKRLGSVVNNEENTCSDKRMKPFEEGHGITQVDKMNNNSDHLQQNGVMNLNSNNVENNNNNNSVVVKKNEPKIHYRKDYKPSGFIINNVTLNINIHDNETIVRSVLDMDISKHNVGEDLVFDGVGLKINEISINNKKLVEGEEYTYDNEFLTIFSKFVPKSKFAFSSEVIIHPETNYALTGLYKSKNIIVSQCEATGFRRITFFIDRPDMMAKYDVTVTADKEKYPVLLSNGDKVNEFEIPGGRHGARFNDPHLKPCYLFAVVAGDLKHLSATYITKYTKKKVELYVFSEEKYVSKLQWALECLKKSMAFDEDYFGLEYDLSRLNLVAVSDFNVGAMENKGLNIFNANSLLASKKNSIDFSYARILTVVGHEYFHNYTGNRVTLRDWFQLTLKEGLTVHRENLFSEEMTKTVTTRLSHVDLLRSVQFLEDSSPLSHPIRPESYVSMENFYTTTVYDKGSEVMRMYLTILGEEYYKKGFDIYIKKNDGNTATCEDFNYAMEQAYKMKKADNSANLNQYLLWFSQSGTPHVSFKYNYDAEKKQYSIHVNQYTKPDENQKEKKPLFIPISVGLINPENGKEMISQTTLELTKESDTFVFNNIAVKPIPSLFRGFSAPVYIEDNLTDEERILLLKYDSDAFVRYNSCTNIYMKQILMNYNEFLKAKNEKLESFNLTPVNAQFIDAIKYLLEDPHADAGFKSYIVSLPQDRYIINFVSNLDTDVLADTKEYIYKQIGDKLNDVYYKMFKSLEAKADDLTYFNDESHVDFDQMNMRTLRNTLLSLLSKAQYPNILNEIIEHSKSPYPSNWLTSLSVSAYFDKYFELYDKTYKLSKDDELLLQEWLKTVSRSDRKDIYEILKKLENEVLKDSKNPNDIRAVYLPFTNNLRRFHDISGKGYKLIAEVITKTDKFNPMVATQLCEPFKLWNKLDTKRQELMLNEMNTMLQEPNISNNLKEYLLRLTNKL

[1] = alpha-synuclein stem-loop luciferase translation blockers – H4 neuroglioma cells, luminescence, confirmation (AID 1988); type: functional, cell-based
[2] = target: T2, Replicative DNA helicase DnaB (Mycobacterium tuberculosis, UniProt P9WMR3); assay: DnaB intein splicing inhibitors, dose response, biochemical, cell-free fluorescence (AID 449749); type: functional
T2 sequence (P9WMR3 whole entry): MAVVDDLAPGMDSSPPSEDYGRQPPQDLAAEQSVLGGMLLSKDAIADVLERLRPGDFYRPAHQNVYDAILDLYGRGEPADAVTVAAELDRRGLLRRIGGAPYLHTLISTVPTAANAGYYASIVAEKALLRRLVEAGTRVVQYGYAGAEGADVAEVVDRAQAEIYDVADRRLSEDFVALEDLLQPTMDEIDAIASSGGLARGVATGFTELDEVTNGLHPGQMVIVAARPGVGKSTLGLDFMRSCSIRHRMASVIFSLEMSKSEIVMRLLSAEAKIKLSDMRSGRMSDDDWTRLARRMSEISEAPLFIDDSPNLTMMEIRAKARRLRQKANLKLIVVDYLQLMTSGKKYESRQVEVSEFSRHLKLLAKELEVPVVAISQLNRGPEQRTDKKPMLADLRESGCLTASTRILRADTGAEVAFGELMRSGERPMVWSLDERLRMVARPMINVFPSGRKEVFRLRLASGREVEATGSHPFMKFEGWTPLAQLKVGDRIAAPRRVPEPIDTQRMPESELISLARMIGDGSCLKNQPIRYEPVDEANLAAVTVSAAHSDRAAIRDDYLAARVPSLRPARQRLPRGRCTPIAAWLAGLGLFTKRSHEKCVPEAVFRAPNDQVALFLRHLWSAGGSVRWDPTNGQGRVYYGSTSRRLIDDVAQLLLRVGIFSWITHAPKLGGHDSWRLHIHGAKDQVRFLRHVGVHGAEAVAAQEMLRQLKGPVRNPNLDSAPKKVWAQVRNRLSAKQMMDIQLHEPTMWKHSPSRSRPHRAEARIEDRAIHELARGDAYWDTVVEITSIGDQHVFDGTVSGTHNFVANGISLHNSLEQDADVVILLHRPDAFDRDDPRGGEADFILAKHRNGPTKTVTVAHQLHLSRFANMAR

[3] = Luminescence Cell-Based Dose Response HTS to Identify Inhibitors of 5'UTR Stem-Loop Driven Prion Protein mRNA Translation in H4 Neuroglioblastoma Cells. [Related pubchem assays: 1827 (Project Summary), 1813 (Primary HTS)]; type: functional
[4] = luciferase reporter signal suppression in cells – H4 neuroglioma cells, luminescence, dose response (AID 1990); type: functional, cell-based
Protein RecA = target: T3, Protein RecA (Mycobacterium tuberculosis, UniProt P9WHJ3); assay: Fluorescence Cell-Free Homogeneous Dose Retest to Identify Inhibitors of RecA-Intein Splicing Activity. [Related pubchem assays (depositor defined):AID2097, AID2223, AID489010, AID492950]; type: functional
T3 sequence (P9WHJ3 whole entry): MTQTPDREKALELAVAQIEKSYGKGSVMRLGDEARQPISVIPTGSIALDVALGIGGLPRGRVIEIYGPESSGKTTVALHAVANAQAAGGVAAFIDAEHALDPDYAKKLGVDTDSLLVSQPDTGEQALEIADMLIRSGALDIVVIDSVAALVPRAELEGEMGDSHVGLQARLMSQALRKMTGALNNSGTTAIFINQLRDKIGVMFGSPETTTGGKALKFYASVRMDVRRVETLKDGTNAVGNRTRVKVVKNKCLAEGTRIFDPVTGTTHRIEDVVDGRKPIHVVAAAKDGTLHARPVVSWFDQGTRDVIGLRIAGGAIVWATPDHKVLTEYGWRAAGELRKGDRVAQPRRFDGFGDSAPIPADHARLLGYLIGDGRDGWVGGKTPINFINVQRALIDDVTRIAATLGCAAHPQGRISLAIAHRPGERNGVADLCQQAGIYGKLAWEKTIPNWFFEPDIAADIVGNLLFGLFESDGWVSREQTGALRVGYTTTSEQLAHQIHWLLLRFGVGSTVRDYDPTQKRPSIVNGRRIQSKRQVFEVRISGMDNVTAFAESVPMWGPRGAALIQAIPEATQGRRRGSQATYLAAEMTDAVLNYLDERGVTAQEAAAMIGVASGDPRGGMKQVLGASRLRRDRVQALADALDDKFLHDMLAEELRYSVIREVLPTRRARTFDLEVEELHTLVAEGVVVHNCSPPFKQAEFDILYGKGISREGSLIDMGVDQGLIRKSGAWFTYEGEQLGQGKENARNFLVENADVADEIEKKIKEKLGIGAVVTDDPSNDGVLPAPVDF

Cytochrome P450 3A4 = Cytochrome P450 3A4 (Homo sapiens, UniProt P08684); settings: Potency;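 also: confirmatory qHTS run detecting inhibitors and substrates of CYP3A4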
Cytochrome P450 2D6 = Cytochrome P450 2D6 (Homo sapiens, UniProt P10635); assay: qHTS Assay for Inhibitors and Substrates of Cytochrome P450 2D6. [Related pubchem assays: 410 ]; type: ADME; settings: read-out: Potency
Hexokinase HKDC1 = target: T4, Hexokinase HKDC1 (Homo sapiens, UniProt Q2TB90); assay: inhibition of HKDC1 glucose phosphorylation – biochemical, W721R variant, dose response (AID 504729); type: functional
T4 sequence (Q2TB90 whole entry): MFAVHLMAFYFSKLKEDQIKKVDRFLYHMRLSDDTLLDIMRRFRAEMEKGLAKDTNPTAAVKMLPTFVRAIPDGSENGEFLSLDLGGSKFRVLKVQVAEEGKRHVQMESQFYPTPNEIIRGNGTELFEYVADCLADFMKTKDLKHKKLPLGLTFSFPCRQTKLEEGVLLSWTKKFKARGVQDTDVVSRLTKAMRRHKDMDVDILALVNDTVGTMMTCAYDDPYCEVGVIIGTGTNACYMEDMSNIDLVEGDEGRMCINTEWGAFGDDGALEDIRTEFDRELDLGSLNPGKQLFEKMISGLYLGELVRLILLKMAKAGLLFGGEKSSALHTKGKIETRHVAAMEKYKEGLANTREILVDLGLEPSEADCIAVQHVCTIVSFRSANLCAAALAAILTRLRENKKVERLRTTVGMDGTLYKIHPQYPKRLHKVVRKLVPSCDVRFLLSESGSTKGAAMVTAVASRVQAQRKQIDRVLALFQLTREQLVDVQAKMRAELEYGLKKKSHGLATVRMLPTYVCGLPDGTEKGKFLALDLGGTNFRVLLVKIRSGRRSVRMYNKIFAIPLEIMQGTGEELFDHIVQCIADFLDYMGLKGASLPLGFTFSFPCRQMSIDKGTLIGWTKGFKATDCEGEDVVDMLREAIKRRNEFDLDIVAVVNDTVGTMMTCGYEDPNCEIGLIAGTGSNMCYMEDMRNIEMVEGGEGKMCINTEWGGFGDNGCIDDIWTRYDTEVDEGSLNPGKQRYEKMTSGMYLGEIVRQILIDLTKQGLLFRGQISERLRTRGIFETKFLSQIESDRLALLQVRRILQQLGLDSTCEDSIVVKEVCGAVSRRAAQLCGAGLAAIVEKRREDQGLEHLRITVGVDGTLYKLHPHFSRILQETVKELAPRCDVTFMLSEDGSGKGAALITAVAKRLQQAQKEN

[5] = target: DNA dC->dU-editing enzyme APOBEC-3G (Homo sapiens, UniProt Q9HC16); assay: Dose Response confirmation of small molecule APOBEC3G DNA Deaminase Inhibitors via a fluorescence-based single-stranded DNA deaminase assay. [Related pubchem assays (depositor defined):AID493012, AID493028]; type: functional
[6] = A cytotoxicity screen of small molecule inhibitors of the PhoP region in Salmonella typhi identified in the primary screen. [Related pubchem assays: 1850, 1864, 1985 ]; type: functional
[7] = target: T5, Calpain-2 catalytic subunit (Sus scrofa, UniProt P43367); assay: m-calpain protease blockers, concentration series – biochemical, fluorogenic peptide substrate, dose response (AID 1420); type: functional
T5 sequence (P43367 whole entry): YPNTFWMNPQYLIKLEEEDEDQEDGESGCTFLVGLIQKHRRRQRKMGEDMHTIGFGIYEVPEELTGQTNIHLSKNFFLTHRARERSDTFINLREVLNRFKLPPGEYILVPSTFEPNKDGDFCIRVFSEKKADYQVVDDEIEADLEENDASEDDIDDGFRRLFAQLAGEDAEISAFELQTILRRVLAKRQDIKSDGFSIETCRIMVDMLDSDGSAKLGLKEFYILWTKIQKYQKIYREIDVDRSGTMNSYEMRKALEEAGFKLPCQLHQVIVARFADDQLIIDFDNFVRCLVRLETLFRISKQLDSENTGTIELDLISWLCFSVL

Ion channel NompC = Ion channel NompC (Danio rerio, UniProt Q7T1G6); assay: Fluorescence counterscreen assay for TRPML3 agonists: dose response cell-based high-throughput screening assay to identify agonists of the transient receptor potential channel N1 (TRPN1). [Related pubchem assays: 1526, 1424, 1448 ]; type: functional
Mucolipin-3 = target: T6, Mucolipin-3 (Homo sapiens, UniProt Q8TDD5); assay: Dose response cell-based high-throughput screening assay for agonists of the transient receptor potential channel ML3 (TRPML3). [Related pubchem assays: 1526, 1424, 1448 ]; type: functional
T6 sequence (Q8TDD5 whole entry): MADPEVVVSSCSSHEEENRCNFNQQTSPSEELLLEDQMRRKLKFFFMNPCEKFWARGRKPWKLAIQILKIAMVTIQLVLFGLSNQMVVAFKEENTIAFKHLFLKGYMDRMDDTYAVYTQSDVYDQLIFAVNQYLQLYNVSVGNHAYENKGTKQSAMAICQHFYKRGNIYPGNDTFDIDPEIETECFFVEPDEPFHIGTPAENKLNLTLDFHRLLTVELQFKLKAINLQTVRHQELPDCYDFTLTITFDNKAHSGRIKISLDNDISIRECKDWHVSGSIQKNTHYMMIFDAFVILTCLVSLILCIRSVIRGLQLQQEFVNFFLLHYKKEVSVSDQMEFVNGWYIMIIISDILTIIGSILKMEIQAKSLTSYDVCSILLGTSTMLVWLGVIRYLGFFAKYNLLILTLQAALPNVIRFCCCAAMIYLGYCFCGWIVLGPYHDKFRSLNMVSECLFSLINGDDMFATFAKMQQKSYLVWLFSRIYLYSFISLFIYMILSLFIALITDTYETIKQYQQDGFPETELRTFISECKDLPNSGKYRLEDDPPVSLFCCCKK

Large T antigen = Large T antigen (Simian virus 40, UniProt P03070); type: functional, Betapolyomavirus macacae;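 also: Confirmatory-stage PubChem screen for compounds that inhibit SV40 T antigen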
Sequence of Large T antigen (P03070 whole entry): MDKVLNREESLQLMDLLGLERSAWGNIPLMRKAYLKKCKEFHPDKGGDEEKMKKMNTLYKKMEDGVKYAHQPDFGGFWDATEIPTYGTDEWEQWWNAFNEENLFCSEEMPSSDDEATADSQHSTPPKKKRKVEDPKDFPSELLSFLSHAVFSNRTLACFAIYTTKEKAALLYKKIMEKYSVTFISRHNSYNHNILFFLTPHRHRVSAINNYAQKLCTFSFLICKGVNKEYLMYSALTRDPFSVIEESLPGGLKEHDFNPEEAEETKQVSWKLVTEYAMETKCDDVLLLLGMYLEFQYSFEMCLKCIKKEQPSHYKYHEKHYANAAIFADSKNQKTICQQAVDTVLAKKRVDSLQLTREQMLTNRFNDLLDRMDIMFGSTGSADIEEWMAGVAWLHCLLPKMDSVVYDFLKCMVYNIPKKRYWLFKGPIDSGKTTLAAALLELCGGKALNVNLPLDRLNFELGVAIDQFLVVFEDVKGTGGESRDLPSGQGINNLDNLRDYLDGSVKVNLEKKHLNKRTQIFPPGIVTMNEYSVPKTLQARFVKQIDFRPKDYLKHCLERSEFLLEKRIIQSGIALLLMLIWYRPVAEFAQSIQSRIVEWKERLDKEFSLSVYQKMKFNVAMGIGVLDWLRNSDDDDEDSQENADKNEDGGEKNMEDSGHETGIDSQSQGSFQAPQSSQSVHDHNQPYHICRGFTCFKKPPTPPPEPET

Sequence of DNA dC->dU-editing enzyme APOBEC-3G (Q9HC16 whole entry): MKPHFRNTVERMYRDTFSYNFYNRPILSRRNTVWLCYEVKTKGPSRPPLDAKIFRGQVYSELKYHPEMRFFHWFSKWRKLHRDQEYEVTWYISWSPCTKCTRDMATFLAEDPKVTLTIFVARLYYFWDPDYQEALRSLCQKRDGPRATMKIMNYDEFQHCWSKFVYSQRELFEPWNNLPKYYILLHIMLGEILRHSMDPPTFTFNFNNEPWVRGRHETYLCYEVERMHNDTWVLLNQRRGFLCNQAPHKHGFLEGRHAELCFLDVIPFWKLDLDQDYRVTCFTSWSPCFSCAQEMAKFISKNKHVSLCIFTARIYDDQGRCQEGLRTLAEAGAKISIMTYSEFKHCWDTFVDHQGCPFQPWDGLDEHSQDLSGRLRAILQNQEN
Sequence of Cytochrome P450 3A4 (P08684 whole entry): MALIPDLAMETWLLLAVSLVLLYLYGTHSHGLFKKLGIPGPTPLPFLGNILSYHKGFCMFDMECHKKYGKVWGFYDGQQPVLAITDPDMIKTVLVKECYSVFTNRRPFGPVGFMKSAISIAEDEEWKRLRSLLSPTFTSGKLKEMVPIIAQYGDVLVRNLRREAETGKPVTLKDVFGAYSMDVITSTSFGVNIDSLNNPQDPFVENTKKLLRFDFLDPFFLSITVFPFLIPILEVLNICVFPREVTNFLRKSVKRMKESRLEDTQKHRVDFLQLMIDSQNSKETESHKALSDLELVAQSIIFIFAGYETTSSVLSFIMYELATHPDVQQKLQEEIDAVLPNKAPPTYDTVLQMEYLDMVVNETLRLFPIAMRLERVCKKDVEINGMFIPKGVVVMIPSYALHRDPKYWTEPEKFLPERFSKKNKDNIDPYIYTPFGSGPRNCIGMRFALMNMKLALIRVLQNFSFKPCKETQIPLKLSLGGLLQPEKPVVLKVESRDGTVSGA
Sequence of Ion channel NompC (Q7T1G6 whole entry): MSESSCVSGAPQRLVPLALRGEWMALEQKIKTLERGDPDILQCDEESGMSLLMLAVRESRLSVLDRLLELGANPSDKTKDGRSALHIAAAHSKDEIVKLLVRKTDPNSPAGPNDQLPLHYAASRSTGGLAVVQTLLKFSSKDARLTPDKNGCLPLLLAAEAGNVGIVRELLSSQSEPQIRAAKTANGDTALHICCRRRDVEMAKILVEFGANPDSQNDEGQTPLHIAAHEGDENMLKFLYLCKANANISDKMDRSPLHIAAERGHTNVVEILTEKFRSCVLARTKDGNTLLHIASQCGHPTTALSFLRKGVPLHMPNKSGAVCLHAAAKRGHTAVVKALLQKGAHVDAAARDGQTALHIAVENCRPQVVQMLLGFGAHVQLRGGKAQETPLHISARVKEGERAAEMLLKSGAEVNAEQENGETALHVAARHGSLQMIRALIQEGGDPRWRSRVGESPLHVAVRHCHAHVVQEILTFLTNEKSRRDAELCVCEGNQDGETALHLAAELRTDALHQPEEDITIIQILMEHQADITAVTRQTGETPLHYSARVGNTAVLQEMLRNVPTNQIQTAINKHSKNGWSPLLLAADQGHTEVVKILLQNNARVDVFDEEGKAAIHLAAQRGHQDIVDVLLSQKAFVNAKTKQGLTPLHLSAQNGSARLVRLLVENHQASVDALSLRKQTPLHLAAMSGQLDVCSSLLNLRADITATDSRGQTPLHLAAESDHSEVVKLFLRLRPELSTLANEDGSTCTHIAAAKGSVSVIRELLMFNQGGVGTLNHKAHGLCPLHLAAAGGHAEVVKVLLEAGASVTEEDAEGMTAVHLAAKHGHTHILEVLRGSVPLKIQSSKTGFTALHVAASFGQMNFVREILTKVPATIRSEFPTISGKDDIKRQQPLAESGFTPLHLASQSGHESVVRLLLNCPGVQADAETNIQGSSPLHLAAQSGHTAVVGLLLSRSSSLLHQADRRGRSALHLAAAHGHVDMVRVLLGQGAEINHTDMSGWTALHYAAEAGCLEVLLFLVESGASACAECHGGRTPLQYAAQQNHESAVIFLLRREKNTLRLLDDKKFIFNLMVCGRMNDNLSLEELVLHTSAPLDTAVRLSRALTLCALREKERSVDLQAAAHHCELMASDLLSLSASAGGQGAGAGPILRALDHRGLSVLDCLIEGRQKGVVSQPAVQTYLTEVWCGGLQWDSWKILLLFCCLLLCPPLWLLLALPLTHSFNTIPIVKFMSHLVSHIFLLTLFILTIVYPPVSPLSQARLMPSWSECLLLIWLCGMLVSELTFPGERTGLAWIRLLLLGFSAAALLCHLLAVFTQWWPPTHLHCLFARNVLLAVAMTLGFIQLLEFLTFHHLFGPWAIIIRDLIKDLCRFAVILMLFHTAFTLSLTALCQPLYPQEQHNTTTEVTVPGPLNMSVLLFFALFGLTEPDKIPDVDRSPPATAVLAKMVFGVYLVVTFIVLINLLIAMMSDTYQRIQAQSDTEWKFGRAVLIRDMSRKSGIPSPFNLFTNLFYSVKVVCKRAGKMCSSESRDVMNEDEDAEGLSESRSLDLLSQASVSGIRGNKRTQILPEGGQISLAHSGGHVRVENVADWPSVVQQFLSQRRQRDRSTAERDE
Sequence of Cytochrome P450 2D6 (P10635 whole entry): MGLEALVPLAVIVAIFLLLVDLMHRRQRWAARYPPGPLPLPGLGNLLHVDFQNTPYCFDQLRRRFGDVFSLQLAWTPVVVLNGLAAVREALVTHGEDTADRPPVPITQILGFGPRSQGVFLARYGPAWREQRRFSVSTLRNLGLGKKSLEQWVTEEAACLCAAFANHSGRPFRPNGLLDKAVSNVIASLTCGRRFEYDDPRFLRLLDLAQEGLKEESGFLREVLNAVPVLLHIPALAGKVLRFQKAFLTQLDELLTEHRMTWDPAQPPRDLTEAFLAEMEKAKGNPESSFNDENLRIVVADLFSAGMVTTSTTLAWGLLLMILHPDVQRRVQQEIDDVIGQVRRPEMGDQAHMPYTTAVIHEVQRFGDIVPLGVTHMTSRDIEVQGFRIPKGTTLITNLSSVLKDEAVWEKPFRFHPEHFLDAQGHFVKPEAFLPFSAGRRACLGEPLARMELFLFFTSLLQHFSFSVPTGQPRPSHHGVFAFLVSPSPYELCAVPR

CCOc1cc(/C=C(/C#N)C(=O)Nc2ccc(O)cc2)cc(Br)c1O
IC50 (Aminopeptidase N): 78.7 µM (active) | EC50 [1]: 7.65 µM (active) | AC50 [2]: > 380 µM (inactive) | EC50 [3]: 9.51 µM (active) | EC50 [4]: 9.71 µM (inconclusive) | EC50 (Protein RecA): 3.28 µM (active)

OCC1OC(c2ccc3c(c2)OCO3)C=CC1Oc1ccc(C2CCCC2)cc1 (stereo not given)
AC50 (Cytochrome P450 3A4): 2 µM (inconclusive) | AC50 (Cytochrome P450 2D6): 3.16 µM (inconclusive)

COc1ncnc2c1oc1nc(C(C)C)c3c(c12)CC(C)(C)OC3
IC50 (Hexokinase HKDC1): 11.7 µM (active)

COc1ccc(OC)c(C(c2c(O)oc3ccccc3c2=O)c2c(C)n(C)n(-c3ccccc3)c2=O)c1 (stereo not given)
IC50 (Aminopeptidase N): 71 µM (active)

CCn1c(N)c(C(=O)NCC2CCCO2)sc1=S (stereo not given)
IC50 [5]: 66.6 µM (active)

CC(C)c1nc2oc3c(O)ncnc3c2c2c1COC(C)(C)C2
IC50 (Hexokinase HKDC1): 8.22 µM (active)

Cc1cccc(OCCSc2nnc(-c3ccoc3C)n2C)c1
EC50 [6]: > 50 µM (active)

COc1ccc2c(c1)C(C)CC(C)(C)N2C(=O)CSc1nc2ccccc2s1 (stereo not given)
IC50 [7]: 3.08 µM (not active) | EC50 (Ion channel NompC): > 29.9 µM (not active) | EC50 (Mucolipin-3): 2.63 µM (active)

COc1ccccc1C(=O)Nc1nnc(-c2ccc(Cl)cc2)o1
EC50 [6]: > 50 µM (active)

O=C1c2n[nH]c(-c3ccccc3O)c2C(c2ccc(F)cc2)N1CC1CCCO1 (stereo not given)
EC50 [6]: > 50 µM (active)

COc1cc(/C=C2\SC(=S)N(C(C(=O)O)c3ccccc3)C2=O)ccc1O (stereo not given)
IC50 (Aminopeptidase N): 38.1 µM (active) | IC50 (Large T antigen): 11.6 µM (active)
